In patent publication US20220204473A1, “COMPOUND AS IRAK INHIBITOR” (SHANGHAI MEIYUE BIOTECH DEVELOPMENT CO., LTD., priority 2018, published 2022):

How the values were obtained:
[1] = tested on: cytokine TNF-α in LPS-induced human PBMCs; experiment: Inhibition of cytokine TNF-α in LPS-induced human PBMC (ELISA); type: cell-based; conditions: 0.1 μg/mL LPS for 4 h
Description: Procedures: Cytokine production in human PBMCs (peripheral blood mononuclear cells) was induced by LPS (lipopolysaccharide) in vitro, and the inhibitory effect of the compounds on induced cytokine production in human PBMCs was investigated.
Fresh human PBMC was centrifuged for 10 min at room temperature at 450×g and the supernatant was discarded. The PBMC was resuspended in complete RPMI 1640 medium.
The assay was performed in complete medium. PBMC was seeded at a density of 1×10^5 cells/well into a 96-well plate. The compounds according to the present disclosure were serially diluted in an isotonic 100% DMSO solution to 8 concentrations from 20 μM to 0.002 nM respectively, with the final DMSO concentration being 0.25%. Cells were pre-incubated with the formulated compounds for 30 min at 37° C. prior to stimulation. To induce cytokine secretion, cells were stimulated with 0.1 μg/mL LPS (Sigma, Escherichia coli O111:B4) for 4 h at 37° C. The cell culture supernatant was then separated by centrifugation at 450×g for 10 min at room temperature.
The amount of secreted TNF-α in the supernatants was determined using the human TNF-α ELISA kit according to the manufacturer's instruction.
The readings of absorbance at A450 were measured with a microplate reader SpectraMax i3x (Molecular Device) for calculating the inhibition of the compounds, and IC50 values were calculated with GraphPad Prism 7.0 software respectively.

[2] = tested on: IL-6 release in LPS-induced Balb/c female mice; experiment: Inhibition of IL-6 release in LPS-induced Balb/c female mice; type: in vivo, mouse; set-up: concentration or dose not given beside the values; conditions: administered 5 h before LPS induction, serum
Description: Objective of the test: To determine the inhibitory effect of the compounds by measuring the plasma IL-6 concentration in a Balb/c mouse model with LPS-induced inflammation.
2.1 Prepared mouse serum samples (sample batch no. 20181218)
4.1 Reagent kit was equilibrated at room temperature (25-28° C.) for 20 min. After each detection, the remaining reagents were stored at 4° C.
4.3 Preparing reference standard: 1 vial of reference standard substance was added with labeled volume of reference standard diluent. The mixtures were incubated for 15 min at room temperature. Then the mixtures were gently mixed to completely dissolve the substance to prepare a reference standard stock at a final concentration of 1000 μg/mL.
4.4 Dilution of samples: The sample in each group was diluted by […], i.e., a 2-fold dilution with sample assay buffer followed by another two-fold dilution with standard diluent.
4.5 The diluted samples or standards of different concentrations were added into corresponding wells at 100 μL/well respectively, and a background correcting well (or a blank well) was set by adding only TMB buffer and terminating solution. The wells were sealed with a transparent film and incubated at room temperature for 120 min.
4.6 The plate was subjected to 5 washes, each with 300 μL of washing buffer for 15-30 sec. The plate was dried on thick absorbent paper after the last wash.
4.7 Biotinylated antibody was added at 100 μL/well (Note: the biotinylated antibody was prepared in advance and could be used directly without further dilution). The wells were sealed with a transparent film and incubated at room temperature for 60 min.
4.8 The plate was subjected to 5 washes, each with 300 μL of washing buffer for 15-30 sec. The plate was dried on thick absorbent paper after the last wash.
4.9 Horseradish peroxidase-labeled streptavidin was added at 100 μL/well. The wells were sealed with a white film and incubated away from light at room temperature for 20 min.
4.10 The plate was subjected to 5 washes, each with 300 μL of washing buffer for 15-30 sec. The plate was dried on thick absorbent paper after the last wash.
4.11 The chromogenic reagent TMB was added 100 μL/well. The wells were sealed with a white film and incubated away from light at room temperature for 20 min.
4.12 The terminating solution was added at 50 μL/well and A450 value was measured right after mixing.

CYP2C9 = molecular target: T1, CYP2C9 (Homo sapiens, UniProt P11712); experiment: CYP450 inhibition in human liver microsomes, CYP2C9; type: in vitro ADME; conditions: human liver microsomes, probe diclofenac; read-out: IC50, subtype 2C9
T1 construct: tissue Corning (USA); host or cells: mixed human liver microsomes
Description: (§1) This study was intended to investigate the inhibitory effect of the test compounds on five major CYP450 enzyme subtypes CYP1A2, 2C9, 2C19, 2D6 and 3A4 in human liver microsomes. The mixed human liver microsomes used in this assay were purchased from Corning (USA). The test compounds were co-incubated at 7 concentrations with human liver microsomes and five probe substrates (phenacetin for CYP1a2, diclofenac for CYP2C9, mephenytoin for CYP2C19, dextromethorphan for CYP2D6, midazolam for CYP3A4-M, mixed). The reaction was initiated by adding coenzyme NADPH, and terminated by adding acetonitrile containing internal standard. After the proteins were precipitated, the supernatant was centrifuged. The characteristic metabolites in the supernatant (acetaminophen for CYP1A2, 4-hydroxydiclofenac for CYP2C9, 4-hydroxymephenytoin for CYP2C19, dextrorphan for CYP2D6, 1-hydroxymidazolam for CYP3A4-M) were analyzed by LC-MS/MS. The influence of the test compounds on production of the characteristic metabolites was finally analyzed on the basis of the data obtained. A selective inhibitor (ketoconazole for CYP3A4-M) was used as positive control. All samples were tested in duplicate.

CYP2C19 = molecular target: T2, CYP2C19 (Homo sapiens, UniProt P33261); experiment: CYP450 inhibition in human liver microsomes, CYP2C19; type: in vitro ADME; conditions: human liver microsomes, probe mephenytoin; read-out: IC50, subtype 2C19
T2 construct: tissue Corning (USA); host or cells: mixed human liver microsomes
Description: as §1

CYP2D6 = molecular target: T3, CYP2D6 (Homo sapiens, UniProt P10635); experiment: CYP450 inhibition in human liver microsomes, CYP2D6; type: in vitro ADME; conditions: human liver microsomes, probe dextromethorphan; read-out: IC50, subtype 2D6
T3 construct: tissue Corning (USA); host or cells: mixed human liver microsomes
Description: as §1

CYP3A4 = molecular target: T4, CYP3A4 (Homo sapiens, UniProt P08684); experiment: CYP450 inhibition in human liver microsomes, CYP3A4; type: in vitro ADME; conditions: human liver microsomes, probe midazolam; read-out: IC50, subtype 3A4
T4 construct: tissue Corning (USA); host or cells: mixed human liver microsomes
Description: as §1

T1 sequence (P11712 whole entry): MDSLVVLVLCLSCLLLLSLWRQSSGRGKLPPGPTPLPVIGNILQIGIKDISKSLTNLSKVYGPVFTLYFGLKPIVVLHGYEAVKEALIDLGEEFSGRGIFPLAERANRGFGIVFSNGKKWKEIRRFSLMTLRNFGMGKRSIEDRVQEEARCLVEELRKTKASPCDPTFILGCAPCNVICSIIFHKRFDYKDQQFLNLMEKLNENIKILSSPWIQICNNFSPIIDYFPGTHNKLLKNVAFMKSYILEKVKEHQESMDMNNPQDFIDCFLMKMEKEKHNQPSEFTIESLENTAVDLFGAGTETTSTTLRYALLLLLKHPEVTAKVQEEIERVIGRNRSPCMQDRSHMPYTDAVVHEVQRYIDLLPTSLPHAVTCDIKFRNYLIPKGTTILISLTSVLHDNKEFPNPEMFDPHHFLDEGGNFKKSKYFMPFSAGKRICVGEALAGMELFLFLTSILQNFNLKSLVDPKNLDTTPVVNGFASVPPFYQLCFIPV
T4 sequence (P08684 whole entry): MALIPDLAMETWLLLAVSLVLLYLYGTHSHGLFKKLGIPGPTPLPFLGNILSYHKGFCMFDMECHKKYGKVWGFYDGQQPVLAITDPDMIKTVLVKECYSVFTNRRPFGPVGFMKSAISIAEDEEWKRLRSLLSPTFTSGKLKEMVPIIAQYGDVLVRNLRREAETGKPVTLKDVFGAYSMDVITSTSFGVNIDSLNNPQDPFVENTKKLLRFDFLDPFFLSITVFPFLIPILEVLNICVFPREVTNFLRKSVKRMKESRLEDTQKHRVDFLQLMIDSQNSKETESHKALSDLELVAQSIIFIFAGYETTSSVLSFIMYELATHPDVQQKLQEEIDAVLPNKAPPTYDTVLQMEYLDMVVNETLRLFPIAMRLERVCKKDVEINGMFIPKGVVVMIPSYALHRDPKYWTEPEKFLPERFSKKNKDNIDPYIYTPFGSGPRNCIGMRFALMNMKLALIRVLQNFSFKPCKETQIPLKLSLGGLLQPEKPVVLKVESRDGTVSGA
T3 sequence (P10635 whole entry): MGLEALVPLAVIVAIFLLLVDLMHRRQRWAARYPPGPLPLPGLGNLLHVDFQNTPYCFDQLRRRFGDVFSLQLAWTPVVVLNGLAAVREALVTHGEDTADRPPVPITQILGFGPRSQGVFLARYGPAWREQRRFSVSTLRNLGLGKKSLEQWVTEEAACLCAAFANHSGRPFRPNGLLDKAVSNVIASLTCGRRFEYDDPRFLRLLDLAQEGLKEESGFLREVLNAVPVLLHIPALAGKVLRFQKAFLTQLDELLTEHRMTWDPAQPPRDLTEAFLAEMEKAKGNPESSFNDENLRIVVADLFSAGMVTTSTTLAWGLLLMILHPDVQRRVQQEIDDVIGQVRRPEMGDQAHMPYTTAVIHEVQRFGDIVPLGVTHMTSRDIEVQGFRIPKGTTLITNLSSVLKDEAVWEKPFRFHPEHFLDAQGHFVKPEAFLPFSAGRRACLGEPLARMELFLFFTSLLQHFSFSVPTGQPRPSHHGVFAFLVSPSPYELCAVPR
T2 sequence (P33261 whole entry): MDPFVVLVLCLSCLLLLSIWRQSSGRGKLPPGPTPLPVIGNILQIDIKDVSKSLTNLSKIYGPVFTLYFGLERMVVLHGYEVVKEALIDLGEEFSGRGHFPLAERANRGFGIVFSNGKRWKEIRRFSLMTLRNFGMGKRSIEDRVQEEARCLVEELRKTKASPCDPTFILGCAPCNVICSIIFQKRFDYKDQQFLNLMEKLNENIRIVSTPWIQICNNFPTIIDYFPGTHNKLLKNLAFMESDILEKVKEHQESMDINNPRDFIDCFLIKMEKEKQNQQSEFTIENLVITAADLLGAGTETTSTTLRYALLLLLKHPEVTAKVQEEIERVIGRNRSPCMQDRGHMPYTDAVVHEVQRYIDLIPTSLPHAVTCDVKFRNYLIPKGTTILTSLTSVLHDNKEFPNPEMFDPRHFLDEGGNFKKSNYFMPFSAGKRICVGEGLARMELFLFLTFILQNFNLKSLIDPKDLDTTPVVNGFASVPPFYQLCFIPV

Compound | IC50 [1] [nM] | Inhibition rate of IL-6 [2] [%] | IC50 (CYP2C9) [µM] | IC50 (CYP2C19) [µM] | IC50 (CYP2D6) [µM] | IC50 (CYP3A4) [µM]
CN(C)c1cc2nn([C@H]3C[C@H](C(C)(C)O)C3)cc2cc1NC(=O)c1cccc(C(F)(F)F)n1 [MY-004-089] | 165 | 94.33 |  |  |  | 
COc1cc2nn([C@H]3CC[C@](C)(O)CC3)cc2cc1NC(=O)c1cccc(C(F)(F)F)n1 [MY-004-126-1] | 71.8 | 97.05 | > 30 | > 30 | > 30 | > 30
COc1cc2nn([C@H]3CC[C@@](C)(O)CC3)cc2cc1NC(=O)c1cccc(C(F)(F)F)n1 [MY-004-126-2] |  | 93.39 |  |  |  | 
COc1cc2nn([C@H]3CC[C@H](O)CC3)cc2cc1NC(=O)c1cccc(C(F)(F)F)n1 [MY-004-127-1] |  | 83.28 | > 30 | > 30 | > 30 | > 30
CN(C)c1cc2nn([C@H]3CC[C@H](O)CC3)cc2cc1NC(=O)c1cccc(C(F)(F)F)n1 [MY-004-153] | 191 |  |  |  |  | 
CC(C)(O)c1cc2nn([C@H]3CC[C@](C)(O)CC3)cc2cc1NC(=O)c1cccc(C(C)(F)F)n1 [MY-004-165] |  |  | 20.9 | > 30 | > 30 | > 30
